Measurements as given in US20240294988A1, “METHODS OF DETERMINING RESPONSIVENESS TO CHEMOTHERAPEUTIC COMPOUNDS FOR CANCER THERAPY” (Northwestern University, priority 2021, published 2024).
“Also recorded” adds a separate entry of the source.

Columns and labels:
[1] = pharmacologic data and clinical investigations; cited from earlier work
[2] = mice, systemic delivery of ABX; cited from earlier work
[3] = tested on: H4 SSR3 KO and control cells; experiment: Microtubule polymerization, alpha-tubulin immunofluorescence in H4 cells; assay type: cell-based, human; conditions: PTX 0.5 μM, 48 h
Method: H4 SSR3 knockout and non-targeting control cells were grown on glass coverslips. […] The cells were then stained with α-tubulin and SSR3 antibodies at 1:100 dilution and the images were acquired on the Nikon A1 (C) confocal microscope. Microtubule bundles per cell cluster were counted for the analysis.

[4] = tested on: H4; experiment: Cell viability assay (PTX dose response, CellTiter Glo) in glioma cell lines; assay type: cell-based, human; conditions: H4 glioma cell line, PTX dose response curve
Method: GBM cells were seeded at a density of 5000 cells per well in a 96 well plate. One day after seeding, cells were checked for attachment and confluence (60-70%). […] 72 hours later cell viability was determined by CellTiter Glo (Promega).

CC(=O)O[C@H]1C(=O)[C@@]2(C)[C@H]([C@H](OC(=O)c3ccccc3)[C@]3(O)C[C@H](OC(=O)[C@H](O)[C@@H](NC(=O)c4ccccc4)c4ccccc4)C(C)=C1C3(C)C)[C@]1(OC(C)=O)CO[C@@H]1C[C@@H]2O [PTX, Paclitaxel]
crossing of the BBB [1]: does not cross the BBB | enhancement of brain penetration of PTX by ultrasound therapy [2]: 3-5 fold | effect on microtubule polymerization [3]: stabilization of microtubule polymerization | sensitivity to PTX among glioma cell lines [4]: most sensitive; also recorded: highest degree of sensitivity
